The record followed here is patent US10442791B2, “DNA-PK inhibitors” (Vertex Pharmaceuticals Incorporated, priority 2012, dated 2019).

SMILES strings stand for the structures.

For this assay, the target named is DNA-PK (Homo sapiens, UniProt P78527). Kind of assay: DNA-PK inhibition assay (radiometric 33P-ATP kinase assay). The class given is biochemical. As to conditions: 100 μM ATP; competitive tight-binding fit. On the procedure:
Compounds were screened for their ability to inhibit DNA-PK kinase using a standard radiometric assay. Briefly, in this kinase assay the transfer of the terminal ^33P-phosphate in ^33P-ATP to a peptide substrate is interrogated. The assay was carried out in 384-well plates to a final volume of 50 μL per well containing approximately 6 nM DNA-PK, 50 mM HEPES (pH 7.5), 10 mM MgCl2, 25 mM NaCl, 0.01% BSA, 1 mM DTT, 10 μg/mL sheared double-stranded DNA (obtained from Sigma), 0.8 mg/mL DNA-PK peptide ([…] obtained from American Peptide), and 100 μM ATP. Accordingly, compounds of the invention were dissolved in DMSO to make 10 mM initial stock solutions. Serial dilutions in DMSO were then made to obtain the final solutions for the assay. A 0.75 μL aliquot of DMSO or inhibitor in DMSO was added to each well, followed by the addition of ATP substrate solution containing ^33P-ATP (obtained from Perkin Elmer). The reaction was started by the addition of DNA-PK, peptide and ds-DNA. After 45 min. the reaction was quenched with 25 μL of 5% phosphoric acid. The reaction mixture was transferred to MultiScreen HTS 384-well PH plates (obtained from Millipore), allowed to bind for one hour, and washed three times with 1% phosphoric acid. Following the addition of 50 μL of Ultima Gold™ high efficiency scintillant (obtained from Perkin Elmer), the samples were counted in a Packard TopCount NXT Microplate Scintillation and Luminescence Counter (Packard BioScience). The Ki values were calculated using Microsoft Excel Solver macros to fit the data to the kinetic model for competitive tight-binding inhibition.
Turning to `CNC(=O)c1c(F)cnc2c([C@H](C)CNc3cc(-c4cnc(NCC(=O)N(C)C)nc4)ncn3)cccc12` [Compound 1076], the inhibitory constant (Ki) (as a rule, a dissociation constant, usually derived from enzyme kinetics or from competition with a known ligand) was less than 30 nM.
As for `CNC(=O)c1c(F)cnc2c([C@H](C)CNc3cc(-c4cnc(NCCNC(C)=O)nc4)ncn3)cccc12` [Compound 1052], the figure is less than 30 nM; as for `CNC(=O)c1c(F)cnc2c([C@H](C)CNc3cc(-c4ccc(NC5CCN(C)CC5)nc4)ncn3)cccc12` [Compound 1063], less than 30 nM; as for `Cc1ccc(-c2cc(NC[C@@H](C)c3cccc4c3ncc3[nH][nH]c(=O)c34)ncn2)cn1` [Compound 993], less than 30 nM.
Regarding `CNC(=O)c1ccnc2c([C@H](C)CNc3cc(-c4cnc(N(C)C5CCN(CC(F)F)CC5)nc4)ncn3)cccc12` [Compound 1060], the Ki was less than 30 nM.
As for `CNC(=O)c1c(F)cnc2c([C@H](C)CNc3cc(-c4cnc(OC5CCN(C)CC5)nc4)ncn3)cccc12` [Compound 1050], the figure is less than 30 nM; as for `CNC(=O)c1c(F)cnc2c([C@H](C)CNc3cc(-c4ccc(CC5CCN(C)CC5)nc4)ncn3)cccc12` [Compound 991], less than 30 nM.
As for `CNC(=O)c1ccnc2c([C@H](C)CNc3cc(-c4cc(C)nc(C)c4)ncn3)cccc12` [Compound 820], the figure is less than 30 nM; as for `CNC(=O)c1ccnc2c([C@H](C)CNc3cc(-c4cnc(N(C)C5CCN(CC(F)(F)F)CC5)nc4)ncn3)cccc12` [Compound 1061], less than 30 nM.
As for `COc1ccccc1[C@H](C)CNc1cc(-c2ccc(NCC(O)CO)nc2)ncn1` (single isomer, unassigned) [Compound 200], the figure is less than 30 nM; as for `CNC(=O)c1ccnc2c([C@H](C)CNc3cc(-c4cnc(NC5CCN(CC(F)F)CC5)nc4)ncn3)ccc(F)c12` [Compound 1038], less than 30 nM.
On to `CNC(=O)c1ccc([C@H](C)CNc2cc(-c3ccc(NC(C)COC)nc3)ncn2)c(OC)c1` (single isomer, unassigned) [Compound 394], for which the Ki was less than 30 nM.
As for `CNC(=O)c1ccnc2c([C@H](C)CNc3cc(-c4cnc(NC5CCN(CC(F)F)CC5)nc4)ncn3)cccc12` [Compound 1034], the figure is less than 30 nM.
As for `CNC(=O)c1ccnc2c([C@H](C)CNc3cc(-c4cnc(NCC(=O)N(C)C)nc4)ncn3)cccc12` [Compound 1077], the figure is less than 30 nM.
As for `CNC(=O)c1ccnc2c([C@H](C)CNc3cc(-c4ccc(N(C)C5CCN(C(C)=O)CC5)nc4)ncn3)cccc12` [Compound 1088], the figure is less than 30 nM.
As for `CNC(=O)c1c(F)cnc2c([C@H](C)CNc3cc(-c4cnc(N(C)C5CCN(C(C)=O)CC5)nc4)ncn3)cccc12` [Compound 1059], the inhibitory constant (Ki) was less than 30 nM.
As for `CNC(=O)c1c(F)cnc2c([C@H](C)CNc3cc(-c4ccc(CC5CCN(CC(F)F)CC5)nc4)ncn3)cccc12` [Compound 1043], the figure is less than 30 nM.
Regarding `CNC(=O)c1ccnc2c([C@H](C)CNc3cc(-c4cnc5c(c4)C(C)OC5)ncn3)cccc12` (single isomer, unassigned) [Compound 1012], the Ki is less than 30 nM.
`CNC(=O)c1c(F)cnc2c([C@H](C)CNc3cc(-c4cnc(COC(C)C)nc4)ncn3)cccc12` [Compound 1015] came in with an inhibition constant Ki of less than 30 nM.
Regarding `CNC(=O)c1c(F)cnc2c([C@H](C)CNc3cc(-c4ccc(N(C)C5CCN(CC(F)(F)F)CC5)nc4)ncn3)cccc12` [Compound 1090], the Ki was less than 30 nM.
Next, `CNC(=O)c1ccnc2c([C@H](C)CNc3cc(-c4cnc(CC5CCN(C)CC5)nc4)ncn3)cccc12` [Compound 1001]: less than 30 nM.
`CNC(=O)c1ccnc2c([C@H](C)CNc3cc(-c4cnc(NC5CC5)nc4)ncn3)ccc(F)c12` [Compound 1028]: the Ki is less than 30 nM.
As for `CCOc1ncc(-c2cc(NC[C@@H](C)c3cccc4c(C(=O)NC)ncnc34)ncn2)cn1` [Compound 1011], the figure is less than 30 nM; as for `CNC(=O)c1ccnc2c([C@H](C)CNc3cc(-c4ccnc(C(C)OC)c4)ncn3)cccc12` (single isomer, unassigned) [Compound 1039], less than 30 nM; as for `CNC(=O)c1ccnc2c([C@H](C)CNc3cc(-c4cnc(N(C)C5CCN(C(C)=O)CC5)nc4)ncn3)cccc12` [Compound 1081], less than 30 nM.
`CNC(=O)c1c(F)cnc2c([C@H](C)CNc3cc(-c4cnc(CC5CCN(C(C)=O)CC5)nc4)ncn3)cccc12` [Compound 1044] showed an inhibition constant Ki of less than 30 nM.
As for `CNC(=O)c1ccnc2c([C@H](C)CNc3cc(-c4ccc(CC5CCN(C(C)=O)CC5)nc4)ncn3)ccc(F)c12` [Compound 1018], the figure is less than 30 nM; as for `CNC(=O)c1c(F)cnc2c([C@H](C)CNc3cc(-c4cnc(COC)nc4)ncn3)cccc12` [Compound 999], less than 30 nM.
The compound `CNC(=O)c1ccnc2c([C@H](C)CNc3cc(-c4cnc(NCCNC(C)=O)nc4)ncn3)cccc12` [Compound 1051] gave a Ki of less than 30 nM.
On to `COc1ccccc1[C@H](C)CNc1cc(-c2ccnc(N[C@@H](C)CO)c2)ncn1` (single isomer, unassigned) [Compound 213], for which the inhibition constant (Ki) is less than 30 nM.
Next, `CNC(=O)c1ccnc2c([C@H](C)CNc3cc(-c4cnc(N(C)C5CCN(C)CC5)nc4)ncn3)cccc12` [Compound 1057]: less than 30 nM; `CNC(=O)c1ccnc2c([C@H](C)CNc3cc(-c4cnc(OC(C)(C)C)nc4)ncn3)cccc12` [Compound 996]: less than 30 nM; `CNC(=O)c1ccnc2c([C@H](C)CNc3cc(-c4cnc(OCC(F)(F)F)nc4)ncn3)cccc12` [Compound 769]: less than 30 nM.
Next, `CNC(=O)c1c(F)cnc2c([C@H](C)CNc3cc(-c4cnc(NC5CCN(C)CC5)nc4)ncn3)cccc12` [Compound 1079]: less than 30 nM; `CNC(=O)c1ccnc2c([C@H](C)CNc3cc(-c4cnc(N5CCN(CC(F)(F)F)CC5)nc4)ncn3)cccc12` [Compound 781]: less than 30 nM; `CNC(=O)c1c(F)cnc2c([C@H](C)CNc3cc(-c4cnc(NC5CCN(CC(F)(F)F)CC5)nc4)ncn3)cccc12` [Compound 1036]: less than 30 nM.
Next, `CNC(=O)c1c(F)cnc2c([C@H](C)CNc3cc(-c4cnc(CC5CCN(CC(F)(F)F)CC5)nc4)ncn3)cccc12` [Compound 1048]: less than 30 nM.
`[2H]c1nc(C)nc([2H])c1-c1cc(NC[C@@H](C)c2cccc3c(C(N)=O)ccnc23)ncn1` [Compound 1027] came in with a Ki of less than 30 nM.
Next, `CNC(=O)c1ccnc2c([C@H](C)CNc3cc(-c4cnc(OC)c(CO)c4)ncn3)ccc(F)c12` [Compound 883]: less than 30 nM; `CNC(=O)c1c(F)cnc2c([C@H](C)CNc3cc(-c4cnc(NC5CC5)nc4)ncn3)cccc12` [Compound 1032]: less than 30 nM; `CNC(=O)c1ccnc2c([C@H](C)CNc3cc(-c4ccc(CC5CCN(CC(F)(F)F)CC5)nc4)ncn3)cccc12` [Compound 1023]: less than 30 nM.
For the compound `Cc1ccc(-c2cc(NCC(C)c3cncc4c3OCC4)ncn2)cn1` (stereo not shown) [Compound 418], the Ki is less than 30 nM.
In the case of `CNC(=O)c1c(F)cnc2c([C@H](C)CNc3cc(-c4cnc(CC5CCN(CC(F)F)CC5)nc4)ncn3)cccc12` [Compound 1046], the inhibitory constant (Ki) is less than 30 nM.
Next, `CNC(=O)c1c(F)cnc2c([C@H](C)CNc3cc(-c4ccc(NC5CCN(C(C)=O)CC5)nc4)ncn3)cccc12` [Compound 1065]: less than 30 nM.
Regarding `CNC(=O)c1c(F)cnc2c([C@H](C)CNc3cc(-c4cnc5c(c4)COC5(C)C)ncn3)cccc12` [Compound 987], the inhibitory constant (Ki) is less than 30 nM.
Next, `CNC(=O)c1ncnc2c([C@H](C)CNc3cc(-c4ccc(F)nc4)ncn3)cccc12` [Compound 1006]: less than 30 nM.
Next, `CNC(=O)c1ccnc2c([C@H](C)CNc3cc(-c4ccc(C5(O)COC5)nc4)ncn3)cccc12` [Compound 1067]: less than 30 nM; `CNC(=O)c1ncnc2c([C@H](C)CNc3cc(-c4ccc(OC)nc4)ncn3)cccc12` [Compound 1005]: less than 30 nM.
`CNC(=O)c1ccnc2c([C@H](C)CNc3cc(-c4cnc(NCCNC(C)=O)nc4)ncn3)ccc(F)c12` [Compound 1053] yielded a Ki of less than 30 nM.
As for `CNC(=O)c1ccnc2c([C@H](C)CNc3cc(-c4ccc(CC5CCN(CC(F)(F)F)CC5)nc4)ncn3)ccc(F)c12` [Compound 1022], the figure is less than 30 nM; as for `CNC(=O)c1ccnc2c([C@H](C)CNc3cc(-c4cnc(OC5CCN(C(=O)OC(C)(C)C)C5)nc4)ncn3)cccc12` (stereo partly shown) [Compound 746], less than 30 nM.
In turn, `CNC(=O)c1c(F)cnc2c([C@H](C)CNc3cc(-c4ccc(CC5CCN(CC(F)(F)F)CC5)nc4)ncn3)cccc12` [Compound 1021] yielded a Ki of less than 30 nM.
As for `CNC(=O)c1ccnc2c([C@H](C)CNc3cc(-c4cnc5c(c4)COC5(C)C)ncn3)cccc12` [Compound 986], the figure is less than 30 nM.
As for `CNC(=O)c1ccnc2c([C@H](C)CNc3cc(-c4cnc(NCC(F)(F)F)nc4)ncn3)ccc(F)c12` [Compound 1054], the figure is less than 30 nM; as for `CNC(=O)c1c(F)cnc2c([C@H](C)CNc3cc(-c4cnc(NC5CCN(CC(F)F)CC5)nc4)ncn3)cccc12` [Compound 1037], less than 30 nM.
